Data: patent US6506766B1 (Abbott Laboratories, priority 1998, dated 2003)

Key:
[1] = target: T1, human glucocorticoid receptor-α [GRX] isoform (Homo sapiens, UniProt P04150); assay: Radioligand binding with human glucocorticoid receptor cytosol ([3H]-dexamethasone competition); conditions: GRX cytosol expressed in insect SF21 cells, [3H]-Dex ~0.9 nM, 4° C. overnight; Ki by Cheng-Prusoff, KL ~[…]; read-out: Ki (nM) GR
T1 construct: host or cells: insect SF21 cells (baculovirus)
T1 sequence (P04150 1-777): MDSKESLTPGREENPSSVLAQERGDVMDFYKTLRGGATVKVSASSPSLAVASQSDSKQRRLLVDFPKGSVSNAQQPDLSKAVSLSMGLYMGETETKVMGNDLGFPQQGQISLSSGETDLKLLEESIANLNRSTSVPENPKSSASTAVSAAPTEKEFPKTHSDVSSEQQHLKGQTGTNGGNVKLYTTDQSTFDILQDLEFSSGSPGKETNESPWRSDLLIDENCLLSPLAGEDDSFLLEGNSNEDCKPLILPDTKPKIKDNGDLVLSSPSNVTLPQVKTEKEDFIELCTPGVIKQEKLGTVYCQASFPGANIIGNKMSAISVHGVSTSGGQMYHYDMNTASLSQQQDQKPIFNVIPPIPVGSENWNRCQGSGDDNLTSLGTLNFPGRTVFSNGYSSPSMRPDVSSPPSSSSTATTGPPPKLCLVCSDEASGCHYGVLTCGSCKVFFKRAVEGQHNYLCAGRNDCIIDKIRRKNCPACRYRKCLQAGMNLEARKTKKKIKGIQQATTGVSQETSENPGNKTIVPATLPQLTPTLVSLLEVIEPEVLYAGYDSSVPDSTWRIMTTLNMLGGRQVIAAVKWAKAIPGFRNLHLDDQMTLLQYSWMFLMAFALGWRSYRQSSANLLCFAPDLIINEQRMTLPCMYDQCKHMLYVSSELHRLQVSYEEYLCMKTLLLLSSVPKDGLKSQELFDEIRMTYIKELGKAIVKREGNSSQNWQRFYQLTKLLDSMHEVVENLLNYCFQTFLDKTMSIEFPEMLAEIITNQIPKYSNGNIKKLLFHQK
Excerpt: Briefly, cytosol preparations of human glucocorticoid receptor-α [GRX] isoform and human progesterone receptor-A [PRA] isoform were obtained from Ligand Pharmaceuticals (San Diego, Calif.). Both receptor cDNAs were cloned into baculovirus expression vectors and expressed in insect SF21 cells. [^3H]-dexamethasone (Dex, specific activity 82-86 Ci/mmole) and [^3H]-progesterone (Prog, specific activity 97-102 Ci/mmol) were purchased from Amersham Life Sciences (Arlington Heights, Ill.). Glass fiber type C multiscreen MAFC NOB plates were from Millipore (Burlington, Mass.). Hydroxyapatide Bio-Gel HTP gel was from Bio-Rad Laboratories (Hercules, Calif.). Tris(hydroxymethyl)aminomethane (Tris), ethylenediaminetetraacetic acid (EDTA), glycerol, dithiothreitol (DTT) and sodium moylybdate were obtained from Sigma Chemicals (St. Louis, Mo.). Microscint-20 scintillation fluid was from Packard Instrument (Meriden, Conn.).
Stock solutions (32 mM) of compounds were prepared in dimethylsulfoxide (DMSO), and 50× solutions of test compounds were prepared from the 32 mM solution with a 50:50 mixture of DMSO/ethanol. The 50× solution was then diluted with binding buffer that contained 10 mM Tri-HCl, 1.5 mM EDTA, 10% glycerol, 1 mM DTT, 20 mM sodium molybdate, pH 7.5 @4° C. 1% DMSO/ethanol was present in the binding assay.
For GR binding assays, [^3H]-Dex (˜35,000 dpm (˜0.9 nM)), GRX cytosol (˜35 μg protein), test compounds and binding buffer were mixed in a total volume of 200 μL and incubated at 4° C. overnight in a plate shaker. Specific binding was defined as the difference between binding of [^3H]Dex in the absence and in the presence of 1 μM unlabelled Dex.
After an overnight incubation, 50 μL of hydroxyapatite (25% weight/volume) slurry were added to each well and plates were incubated for 10 min at 0° C. in a plate shaker. Plates were suctioned with a Millipore vacuum manifold and each well was rinsed with 300 μL of ice-cold binding buffer. A 250 μL aliquot of Packard Microscint-20 was added to each well and the wells were shaken at room temperature for 20 minutes. The amount of radioactivity was determined with a Packard TopCount plate reader.
The Ki of test compounds was determined using the Cheng-Prusoff equation Ki=IC50/(1+[L*]/[KL]) where L* is the concentration of radioligand and KL is the dissociation constant of the radioligand determined from saturation analysis.

[2] = target: T2, human progesterone receptor-A [PRA] isoform (Homo sapiens, UniProt P06401); assay: Radioligand binding with human progesterone receptor cytosol ([3H]-progesterone competition); conditions: PRA cytosol expressed in insect SF21 cells, [3H]Prog ~0.8 nM, 4° C. overnight; Ki by Cheng-Prusoff, KL ~4.5 nM; read-out: Ki (nM) PR
T2 construct: host or cells: insect SF21 cells (baculovirus)
T2 sequence (P06401 1-769 isoform P06401-2): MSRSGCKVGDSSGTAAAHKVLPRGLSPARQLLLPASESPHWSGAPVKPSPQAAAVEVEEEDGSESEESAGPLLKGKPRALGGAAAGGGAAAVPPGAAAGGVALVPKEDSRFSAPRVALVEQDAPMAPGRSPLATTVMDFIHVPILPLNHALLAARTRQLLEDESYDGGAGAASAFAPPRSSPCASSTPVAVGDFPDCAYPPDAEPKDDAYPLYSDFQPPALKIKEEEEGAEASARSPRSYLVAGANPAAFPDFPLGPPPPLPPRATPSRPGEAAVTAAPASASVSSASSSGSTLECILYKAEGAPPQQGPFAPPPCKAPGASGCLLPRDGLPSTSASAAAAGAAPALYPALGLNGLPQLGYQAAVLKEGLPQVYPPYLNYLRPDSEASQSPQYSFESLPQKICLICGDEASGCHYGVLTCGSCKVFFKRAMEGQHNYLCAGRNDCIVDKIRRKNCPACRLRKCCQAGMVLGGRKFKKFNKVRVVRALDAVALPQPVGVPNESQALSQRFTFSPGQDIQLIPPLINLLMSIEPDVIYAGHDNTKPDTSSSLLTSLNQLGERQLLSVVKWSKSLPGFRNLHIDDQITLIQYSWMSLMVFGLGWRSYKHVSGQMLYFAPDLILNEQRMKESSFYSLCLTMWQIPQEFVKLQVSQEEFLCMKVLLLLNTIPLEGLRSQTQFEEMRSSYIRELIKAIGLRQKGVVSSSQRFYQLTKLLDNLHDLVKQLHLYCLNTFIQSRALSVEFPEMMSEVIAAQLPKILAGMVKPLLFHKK

Structure (SMILES) | Ki [1] | Ki [2]
COc1cccc2c1-c1ccc3c(c1C(c1cccs1)O2)C(C)=CC(C)(C)N3 (centres unmarked) [Example 129, 2,5-Dihydro-10-methoxy-2,2,4-trimethyl-5-(2-thienyl)-1H-[1]benzopyrano[3,4-f]quinoline] | 5.5 nM | 3620 nM
C=CCC1Oc2ccc(OC)c(OC)c2-c2ccc3c(c21)C(C)=CC(C)(C)N3 (centres unmarked) [Example 130, 2,5-Dihydro-9,10-dimethoxy-2,2,4-trimethyl-5-(2-propenyl)-1H-[1]benzopyrano[3,4-f]quinoline] | 11.9 nM | 1050 nM
COc1ccc2c(c1OC)-c1ccc3c(c1C(C1C=CCCC1)O2)C(C)=CC(C)(C)N3 (centres unmarked) [Example 131, 5-(2-Cyclohexen-1-yl)-2,5-dihydro-9,10-dimethoxy-2,2,4-trimethyl-1H-[1]benzopyrano[3,4-f]quinoline] | 7.71 nM | 996 nM
C=C(C)CCC1Oc2cccc(OC)c2-c2ccc3c(c21)C(C)=CC(C)(C)N3 (centres unmarked) [Example 132, 2,5-Dihydro-10-methoxy-5-(3-methyl-3-butenyl)-2,2,4-trimethyl-1H-[1]benzopyrano[3,4-f]quinoline] | 230 nM | 9890 nM
C=CC1(C2Oc3cccc(OC)c3-c3ccc4c(c32)C(C)=CC(C)(C)N4)CCCCC1 (centres unmarked) [Example 139, 2,5-Dihydro-10-methoxy-5-(1-ethenyl-1-cyclohexyl)-2,2,4-trimethyl-1H-[1]benzopyrano[3,4-f]quinoline] | 235 nM | 4800 nM
COc1cccc2c1-c1ccc3c(c1C(C1C=CCCC1(C)C)O2)C(C)=CC(C)(C)N3 (centres unmarked) [Example 140] | 13 nM | ≥ 10000 nM
COc1cccc2c1-c1ccc3c(c1C(C1CCC=C(CO)C1)O2)C(C)=CC(C)(C)N3 (centres unmarked) [Example 150, 2,5-Dihydro-10-methoxy-5-(3-hydroxymethyl-3-cyclohexenyl)-2,2,4-trimethyl-1H-[1]benzopyrano[3,4-f]quinoline] | 106 nM | ≥ 10000 nM
COc1cccc2c1-c1ccc3c(c1C(c1c[nH]c4ccccc14)O2)C(C)=CC(C)(C)N3 (centres unmarked) [Example 151, 2,5-Dihydro-10-methoxy-5-(3-indolyl)-2,2,4-trimethyl-1H-[1]benzopyrano[3,4-f]quinoline] | 298 nM | ≥ 10000 nM
COc1cccc2c1-c1ccc3c(c1[C@H]([C@@H]1C=C(C)CCC1)O2)C(C)=CC(C)(C)N3 [Example 154] | 0.7 nM | ≥ 10000 nM
COc1cccc2c1-c1ccc3c(c1[C@H]([C@H]1C=C(CO)CCC1)O2)C(C)=CC(C)(C)N3 [Example 155] | 0.86 nM | ≥ 10000 nM
COc1cccc2c1-c1ccc3c(c1[C@@H]([C@@H]1C=C(CO)CCC1)O2)C(C)=CC(C)(C)N3 [Example 156, (+) (5R,3′S) 2,5-Dihydro-10-methoxy-5-(1-hydroxymethyl-3-cyclohexenyl)-2,2,4-trimethyl-1H-[1]benzopyrano[3,4-f]quinoline] | 0.9 nM | 4100 nM
COc1cccc2c1-c1ccc3c(c1[C@H]([C@H]1C=C(C)CCC1)O2)C(C)=CC(C)(C)N3 [Example 157, (−)-(5S,3′R) 2,5-Dihydro-10-methoxy-5-(1-methyl-3-cyclohexenyl)-2,2,4-trimethyl-1H-[1]benzopyrano[3,4-f]quinoline] | 1.5 nM | 433 nM
COc1cccc2c1-c1ccc3c(c1[C@@H]([C@@H]1C=C(C)CCC1)O2)C(C)=CC(C)(C)N3 [Example 158] | 48 nM | ≥ 10000 nM
COc1cccc2c1-c1ccc3c(c1C(C1C=C(CCl)CCC1)O2)C(C)=CC(C)(C)N3 (centres unmarked) [Example 159] | 3.8 nM | 1840 nM
COCC1=CC(C2Oc3cccc(OC)c3-c3ccc4c(c32)C(C)=CC(C)(C)N4)CCC1 (centres unmarked) [Example 160] | 1.8 nM | ≥ 10000 nM
COc1cccc2c1-c1ccc3c(c1C(C1C=C(COC(C)=O)CCC1)O2)C(C)=CC(C)(C)N3 [Example 163, rel (5R, 3′R) 2,5-Dihydro-10-methoxy-5-(1-acetoxymethyl-3-cyclohexenyl)-2,2,4-trimethyl-1H-[1]benzopyrano[3,4-f]quinoline] | 2.6 nM | ≥ 10000 nM
COCC1=CC(C2Oc3cccc(OC)c3-c3ccc4c(c32)C(C)=CC(C)(C)N4)CCC1 (centres unmarked) [Example 164] | 36 nM | ≥ 10000 nM
CNCC1=CC(C2Oc3cccc(OC)c3-c3ccc4c(c32)C(C)=CC(C)(C)N4)CCC1 [Example 170, rel (5R, 3′R) 2,5-Dihydro-10-methoxy-5-(1-(N-methylamino)methyl-3-cyclohexenyl)2,2,4-trimethyl-1H-[1]benzoppyrano[3,4-f]quinoline] | 82 nM | ≥ 10000 nM
C=C(C)CC1Oc2cccc(OC)c2-c2ccc3c(c21)C(C)=CC(C)(C)N3 (centres unmarked) [Example 171, 2,5-Dihydro-10-methoxy-5-(2-methyl-3-propenyl)-2,2,4-trimethyl-1H-[1]benzopyrano[3,4-f]quinoline] | 3.3 nM | 7430 nM
COc1cccc2c1-c1ccc3c(c1C(CC1CO1)O2)C(C)=CC(C)(C)N3 (centres unmarked) [Example 175, 2,5-Dihydro-10-methoxy-5-(1,2-epoxy-3-propenyl)-2,2,4-trimethyl-1H-[1]benzopyrano[3,4-f]quinoline] | 44 nM | 7700 nM
COc1cccc2c1-c1ccc3c(c1C(CCCN1C(=O)c4ccccc4C1=O)O2)C(C)=CC(C)(C)N3 (centres unmarked) [Example 176] | 88 nM | > 10000 nM
COc1cccc2c1-c1ccc3c(c1C(CCCNC(=O)NN)O2)C(C)=CC(C)(C)N3 (centres unmarked) [Example 178, 2,5-Dihydro-10-methoxy-5-(1-(hydrazinocarbonylamino)-3-propyl)-2,2,4-trimethyl-1H-[1]benzopyrano[3,4-f]quinoline] | 468 nM | ≥ 10000 nM
COC(=O)/C=C/C1Oc2cccc(OC)c2-c2ccc3c(c21)C(C)=CC(C)(C)N3 (centres unmarked) [Example 179, (E) 2,5-Dihydro-10-methoxy-5-(2-carbomethoxy-1-ethenyl)-2,2,4-trimethyl-1H-[1]benzopyrano[3,4-f]quinoline] | 9.5 nM | 2750 nM
C/C=C\C1Oc2cccc(OC)c2-c2ccc3c(c21)C(C)=CC(C)(C)N3 (centres unmarked) [Example 180, (Z)-2,5-Dihydro-10-methoxy-5-(1-propenyl)-2,2,4-trimethyl-1H-[1]benzopyrano[3,4-f]quinoline] | 18 nM | 733 nM
COc1cccc2c1-c1ccc3c(c1C(/C=C/CO)O2)C(C)=CC(C)(C)N3 (centres unmarked) [Example 181, (E) 2,5-Dihydro-10-methoxy-5-(3-hydroxy-1-propenyl)-2,2,4-trimethyl-1H-[1]benzopyrano[3,4-f]quinoline] | 207 nM | ≥ 10000 nM
COc1cccc2c1-c1ccc3c(c1C(/C=C/COC(=O)N(C)C)O2)C(C)=CC(C)(C)N3 (centres unmarked) [Example 182, (E) 2,5-Dihydro-10-methoxy-5-(3-(N,N-dimethylaminocarbonyloxy)-1-propenyl)-2,2,4-trimethyl-1H-[1]benzopyrano[3,4-f]quinoline] | 23 nM | ≥ 10000 nM
COCOC/C=C/C1Oc2cccc(OC)c2-c2ccc3c(c21)C(C)=CC(C)(C)N3 (centres unmarked) [Example 183, (E) 2,5-Dihydro-10-methoxy-5-(3-methoxymethoxy-1-propenyl)-2,2,4-trimethyl-1H-[1]benzopyrano[3,4-f]quinoline] | 38 nM | ≥ 10000 nM
COc1cccc2c1-c1ccc3c(c1C(CC(=O)N(C)OC)O2)C(C)=CC(C)(C)N3 (centres unmarked) [Example 185, Methyl 2-(2,5-Dihydro-10-methoxy-2,2,4-trimethyl-1H-[1]benzopyrano[3,4-f]quinolin-5-yl)acetyl Hydroxamate] | 288 nM | ≥ 10000 nM
